Measurements from patent US20220370636A1, “NICOTINAMIDE ADENINE DINUCLEOTIDE ACTIVATOR AND USE THEREOF” (University of South Florida, priority 2021, published 2022).

Tests used:
[1] = test system: db/db mice; test: Pancreatic β cells immunostaining and Gomori aldehyde fuchsin staining in db/db mice; type: in vivo; conditions: 4 weeks
Experimental: Immunostaining. Immunostaining of the pancreas was performed for the measurement of insulin secreting β cells area, as previously described. Briefly, the frozen pancreatic tissues were fixed into tissue freezing media (TFM). Pancreas were cut into 10 μm thick sections and kept at −80° C. For immunostaining, the slides were first air dried and washed with phosphate buffer saline (PBS). The sections were then fixed in 4% paraformaldehyde for 30 min and blocked with SuperBlock™ T20 (TBS) blocking buffer (Thermo scientific, MA, USA) for 30 min, at room temperature (RT). Slides were then incubated with insulin primary antibody (sc-9168, Santa Cruz, TX, USA) diluted in blocking buffer (1:200), overnight at 4° C. Slides were then washed in PBS and incubated with Alexa Fluor®488 secondary antibody (Abcam, Mass., USA) diluted in blocking buffer for 1 h at RT. Following washes, the slides were then mounted with ProLong® Gold antifade mountant containing DAPI (Molecular Probe, OR, USA). Nuclei were labelled by DAPI. The images obtained with confocal multiphoton laser scanning microscope (Olympus FV1000 MPE, Olympus Inc., USA) were quantified by using ImageJ software (NIH, USA). The cross-sectional areas of pancreas and β cells were determined from multiple sections (n=3 mice per group), separated by at least 50 μm from each section. Pancreatic β cell area was calculated by using the following formula: islet β cell area (%)=(area stained by insulin anti-body/total islets area)×100.
Gomori aldehyde fuchsin staining. The Gomori aldehyde fuchsin staining of the pancreatic β cells was performed as per previously published protocol. Briefly, the frozen pancreas was TFM embedded and cut into 6 μm thick transverse serial cryosections using Microm cryostat machine. The slides were air dried at 60° C. and dewaxed using xylene and then hydrated through decreasing concentrations of ethyl alcohol. The slides were then rinsed in cold tap water followed by a single rinse in 50% ethanol and immersed in aldehyde fuchsin (Electron Microscopy Services, PA, USA) for 1 h. The excess stain was removed by rinsing in 70% ethanol and tap water. The slides were then counter-stained with Light Green (American Master Tech Scientific, CA, USA) through immersion for 60 s and dehydrated with increasing concentration of ethanol, and cleared with xylene. The sections were then mounted with disterene phthalate xylene (DPX) mountant (Sigma-Aldrich, MO, USA). Images were obtained at ×20 magnification with the Olympus IX73 inverted microscope using CellSens Standard software (Olympus Soft Imaging Solution, USA) and quantified with ImageJ software (NIH, USA).

[2] = test system: NF-κB; test: Luciferase assay in TNF-α inflamed C2C12/NF-κB reporter cells; type: cell-based, mouse; conditions: 100 and 500 nM, and 1 μM; 24 hours; 10 ng/mL TNF-α; vs DMSO+TNF-α
Experimental: Cell culture and Luciferase assay. The C2C12/NF-κB reporter cells were grown in DMEM supplemented with 10% FBS and 1% penicillin/streptomycin. Puromycin selection of the cells was performed by adding 2 μg/mL to the media, and the C2C12 cells with the NF-κB reporter gene were selected for further culturing. Cells were plated at 40,000 cells per well for the initial seeding density using a 24-well format. To induce inflammation, TNF-α was added at a concentration of 10 ng/mL, and simultaneously, the cells were treated with the vehicle control (DMSO or blank NPs), P7C3 solution, and P7C3 NPs. […] After 24 hours, the luciferase assay was conducted per manufacturer protocol (Promega Luciferase Assay System, USA). Using a Synergy H1 Hybrid Multi-Mode Reader, the luminescence of the cell lysate in the opaque 96-well plate was measured. Protein in the cell lysates was measured using a Pierce™ 660 nm protein assay. The luciferase activity was calculated after normalization with protein concentration.

[3] = test system: Nampt+/− and littermate WT mice; test: Glucose tolerance test in Nampt+/- and littermate WT mice; type: in vivo; conditions: vs vehicle
[4] = test system: RAW264.7 cells; test: Morphology and number of activated cells in LPS-induced RAW264.7 macrophage; type: cell-based; conditions: LPS 1 μg/ml + P7C3 1 μM
Experimental: FIGS. 3A-3E show morphology and number of activated cells in LPS-induced RAW264.7 macrophage in vitro. RAW264.7 cells were cultured in complete medium (FIG. 3A) or contained with P7C3 (FIG. 3B, 1 μM), LPS (FIG. 3C, 1 μg/ml), and LPS+P7C3 (FIG. 3D) for […]. The photo was taken under inverted microscopy (Rebel, ECHO) at 20× mag. The elongated and pseudopod shape of cells were considered as activated (yellow star), but the small and round shape of cells was considered as inactivated (yellow arrow). […] The statistical analysis was performed using two-way ANOVA with Tukey's multiple comparisons test in GraphPad Prism 8.4.3, and p≤0.05 was considered statistically significant.

[5] = test system: db/db mice; test: Grip strength and voluntary running wheel in db/db mice; type: in vivo; conditions: 4 weeks, vs db-Veh
Experimental: Grip strength and voluntary running wheel. The fore-limb and hind-limb grip strengths were measured with the use of Chatillon force measurement DFE II grip strength meter (Ametek, Columbus Instruments, OH, USA). The average of five measurements per mice is represented as KGF/kg body weight for both the fore-limb and hind-limb grip strengths measured. The overnight voluntary running wheel experiments were carried out with the Columbus Instruments O297, the CI Multi-Device Interface (Columbus Instruments, OH, USA) per manufacturer's recommendations.

[6] = test system: C57Bl/6J wildtype mice; test: In vivo myocardial infarction (permanent LAD ligation); conditions: single bolus 10 mg/kg i.p. 30 minutes prior to LAD occlusion; 24 hours; vs vehicle
Experimental: […]. All surgical procedures were carried out in aseptic conditions. A left thoracotomy incision was performed at the fourth intercostal space to expose the heart and ligating the LAD coronary artery with an 8-0 polypropylene suture to induce MI as described previously. Myocardial ischemia was confirmed with both the development of pallor myocardium distal to the ligation in the left ventricle and with the ST-segment elevation on the ECG. The skin and muscle incisions were closed with a 6-0 polypropylene suture, and the mice was administered a single dose long-acting analgesic Buprenorphine SR s.c. at 0.5-1.5 mg/kg body weight. The mice were monitored for any signs of pain or discomfort and its feeding and drinking behavior. After 24 hours of occlusion of the LAD coronary artery, the mice were euthanized as per the approved IACUC protocol, and the heart was excised for further processing with 2,3,5-Triphenyltetrazolium chloride (TTC) (Sigma-Aldrich, MO, USA). The whole heart was cut into six parallel short-axis sections and stained with 1% TTC for 90 minutes and fixed overnight in 10% neutral-buffered formalin (Sigma-Aldrich, MO, USA). The TTC stained heart sections were then scanned to determine the total infarct size as the ratio of the infarcted area, i.e., not stained with TTC to the ventricular area of the 4 sections from the apex to the site of occlusion (n=3 mice/group).

OC(CNc1ccccc1)Cn1c2ccc(Br)cc2c2cc(Br)ccc21 (stereo not drawn) [P7C3, 3,6-Dibromo-a-[(phenylamino)methyl]-9H-carbazole-9-ethanol]
number of islet of Langerhans per tissue section ([1]; vs db-Veh): significant increase | number of β cells per islets of Langerhans ([1]; vs db-Veh): increased | number of β cells per tissue section ([1]; vs db-Veh): significant increase | insulin positive β cells area per islet of Langerhans area ([1]; vs vehicle): significant increase | NF-κB activity (luciferase) [2]: significant decrease | GTT circulating blood glucose levels ([3]; Nampt littermate WT mice, single dose 10 mg/kg i/p): significant decrease | GTT percent AUC ([3]; Nampt littermate WT mice): significant decrease | GTT blood glucose levels ([3]; Nampt+/− mice, single dose 10 mg/kg i/p): did not show any significant effect | GTT percent AUC ([3]; Nampt+/− mice): no significant differences | number of activated RAW264.7 cells ([4]; vs LPS): significantly decreased | non-activated RAW264.7 cells ([4]; vs LPS group): significantly higher | fore-limb grip strength [5]: significant increase | hind-limb grip strength [5]: significant increase | voluntary running wheel distance covered [5]: significant in-crease | total infarct size [6]: significant reduction
